We go through 60 compounds from PubChem BioAssay AID1259321 (Sanford-Burnham Center for Chemical Genomics, 2017).

The source made the active and inactive calls.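 Rule for the calls: active = half-maximal concentration for changing protein binding to DNA, from the fitted dose curve, below 10 micromolar; inactive = the rest.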

The target of the experiment is Nuclear receptor subfamily 1 group D member 1 (Homo sapiens) (UniProt P20393). Description: Rev-erbα–DNA interaction modulators – biochemical, FITC-DNA, fluorescence polarization, dose response (AID 1259321). Conditions: Rev-erb alpha-FITC-DNA binding. For orientation: Polarisation of emitted light reports the rotation of a fluorescent probe.
Chain of Nuclear receptor subfamily 1 group D member 1 (Homo sapiens) (P20393 whole entry, looked up): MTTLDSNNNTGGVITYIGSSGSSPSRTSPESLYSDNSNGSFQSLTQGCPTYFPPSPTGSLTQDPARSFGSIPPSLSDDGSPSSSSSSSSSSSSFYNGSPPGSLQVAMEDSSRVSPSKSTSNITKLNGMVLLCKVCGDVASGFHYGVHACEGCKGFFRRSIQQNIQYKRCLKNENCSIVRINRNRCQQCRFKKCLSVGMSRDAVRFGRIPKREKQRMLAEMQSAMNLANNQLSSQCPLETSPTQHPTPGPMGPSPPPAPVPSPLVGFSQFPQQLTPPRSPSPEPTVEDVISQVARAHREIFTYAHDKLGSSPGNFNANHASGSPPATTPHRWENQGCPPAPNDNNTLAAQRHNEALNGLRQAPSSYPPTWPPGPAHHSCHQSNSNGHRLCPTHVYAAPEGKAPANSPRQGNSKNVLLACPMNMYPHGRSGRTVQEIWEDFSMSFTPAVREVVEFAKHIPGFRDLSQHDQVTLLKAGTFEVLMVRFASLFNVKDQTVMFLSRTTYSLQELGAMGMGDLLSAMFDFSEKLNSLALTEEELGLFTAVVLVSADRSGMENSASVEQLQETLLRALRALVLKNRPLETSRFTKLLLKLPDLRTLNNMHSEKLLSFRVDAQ
Regarding `c1ccc(-c2nc(SCc3nc4ccccc4[nH]3)c3oc4ccccc4c3n2)cc1`, the IC50 – broadly, the concentration that gives 50% inhibition – was 2.4 µM.
Take `COc1ccc2nc(SC)c(C#N)cc2c1`: the IC50 result was “inactive”.
Turning to `Cc1cc(C)cc(N2CC(O)=C(c3nc4ccccc4c(=O)[nH]3)C2=N)c1`, the IC50 was 2.99 µM.
The same measure for `COc1ccc(C(C)(C)C)cc1NC(=O)C1=CC=CN2CCS(=O)(=O)N=C12`: 5.35 µM.
Then `C[n+]1cc(C(=O)N2CCCCC2)ccc1/C=C/c1c[nH]c2ccccc12`, with 9.3 µM.
The same measure for `CCn1c(SCC(=O)Nc2cc(C)on2)nc2sc(C)c(C)c2c1=O`: 4.73 µM; for `Fc1cnc(N2CCc3ccccc32)nc1N1CCc2ccccc21`: 3.22 µM.
Turning to `CC1(Cc2ccccc2C#N)C(=O)Nc2ccc(-c3ccccc3)cc21` (stereo not given), the half-maximal inhibitory concentration (IC50) was 6.27 µM.
Then `COc1ccc(/C=C2\SC(=S)N(CCCC(=O)NC3CCCC3)C2=O)cc1OC`, with > 40 µM (inactive); and `COc1ccc(OC)c(-c2csc(NC(=O)c3ccc4c(c3)OCO4)n2)c1`, with 3.24 µM; and `CN(C)C=Nc1nc2c(Br)ccc(Br)c2cc1C(=O)NCC(C)(C)C`, with “inactive”.
The same measure for `CCc1cc2cc3c(cc2nc1SCC(=O)Nc1nnc(C)s1)OCCO3`: 5.32 µM.
The same measure for `COc1ccc(C(=O)NC(=S)Nc2ccc3[nH]c(=O)[nH]c3c2)c(OC)c1`: > 40 µM (inactive).
Turning to `CCN(CC(=O)NCc1ccc(Cl)cc1)C(=O)c1ccc2cc(OC)ccc2c1`, the IC50 is 4.52 µM.
For `C=CCOc1ccc(/C(O)=C2\C(=O)C(=O)N(CCN(C)C)C2c2cccs2)cc1` (stereo not given), the concentration for half-maximal inhibition (IC50) is 7.38 µM.
Regarding `CCCCCn1c(=O)c(C(=O)Nc2ccccc2Cl)c(O)c2ccccc21`, the IC50 was > 40 µM (inactive).
Then `COc1cccc(-c2nc(CS(=O)(=O)CC(=O)NCCCc3ccccc3)c(C)o2)c1`, with 7.77 µM.
Then `CC(=O)Nc1ccc(N2C(=O)c3cccc4c(O)ccc(c34)C2=O)cc1`, with 0.328 µM; and `CCOC(=O)c1cc(C(=O)OCC)c2cc(Br)ccc2n1`, with “inactive”.
The same measure for `CCN(c1ccccc1C)S(=O)(=O)c1cc2c3c(c1)CCC(=O)N3CCC2`: > 40 µM (inactive); for `COc1ccc(-n2ncc3c(N4CCc5ccccc54)ncnc32)cc1`: 8.26 µM.
Turning to `COc1ccccc1-c1ccc2c(c1)C(C)(Cc1cc(Cl)ccc1C(F)(F)F)C(=O)N2` (stereo not given), the IC50 was > 40 µM (inactive).
Then `CC(=O)OCC1OC(n2c(-c3ccc(Cl)cc3)ccc(C#N)c2=S)C(OC(C)=O)C(OC(C)=O)C1OC(C)=O` (stereo not given), with “inactive”.
Then `CCN(CC)C(=O)Cn1c(C)c(/C=C/c2cc[n+](C)cc2)c2ccccc21`, with 4.55 µM; and `Cc1cc(-c2cccc([N+](=O)[O-])c2)nc2ccc3ccccc3c12`, with 3 µM.
Then `CC[n+]1ccc(/C=C/c2c[nH]c3ccccc23)cc1`, with “inactive”; and `COc1cccc(CNC(=O)C[C@H]2CC[C@H]3[C@@H](COc4ccc(NC(=O)c5cccs5)cc4C(=O)N3C)O2)c1`, with 7.17 µM; and `O=C(Nc1ccc2oc(-c3cccc(F)c3)nc2c1)c1ccccc1F`, with 2.87 µM.
Regarding `Cc1ccc(NC(=S)Nc2nc(CC(=O)Nc3ccccc3)cs2)cc1`, the IC50 was 3.84 µM.
The same measure for `COc1ccccc1NC(=O)c1sc(NC(=O)c2ccco2)c(C#N)c1C`: 3.15 µM.
The same measure for `CCC(c1ccc(O)cc1)C(CC)c1ccc(O)cc1` (stereo not given): “inactive”.
Then `CC(=O)c1sc(NC(=O)COc2ccc(Br)cc2)nc1C`, with 4.41 µM; and `CC(C)CC[n+]1ccccc1/C=C/c1ccc(N(C)C)cc1`, with “inactive”; and `COc1ccc(-c2cc(-c3cccnc3)c(C#N)c(N)n2)cc1`, with 4.4 µM.
With `Cc1cc(C)cc(NC(=S)/C(=C(\[O-])c2ccc(Cl)cc2Cl)[n+]2ccc(C(C)(C)C)cc2)c1`, the IC50 was > 40 µM (inactive).
Turning to `Cc1sc2nc(SCC(=O)NCc3ccco3)n(CCc3ccccc3)c(=O)c2c1C`, the IC50 was > 40 µM (inactive).
Then `CCOC(=O)CSc1nc2cc(OCC)ccc2cc1C#N`, with 6.06 µM.
Then `COc1ccccc1CC1(C)C(=O)Nc2ccc(OC(F)(F)F)cc21` (stereo not given), with > 40 µM (inactive); and `O=C(CCSc1nnc2scc(-c3ccccc3)n12)Nc1nc(-c2ccccc2)ns1`, with “inactive”; and `Cc1ccc(Sc2cnc3ccccc3n2)cc1`, with “inactive”.
Then `COc1ccc(-c2c(C#N)c(N)nc(Sc3ccc(Cl)cc3)c2C#N)cc1`, with 3.66 µM; and `CN1C(=O)c2cc(NS(=O)(=O)c3ccc(F)cc3)ccc2OC[C@H]2O[C@@H](CC(=O)NCC(F)(F)F)CC[C@@H]21`, with 1.62 µM.
Consider `COc1ccc(-c2cc3c(=O)n(CC(=O)Nc4ccc(C(C)=O)cc4)ncn3n2)cc1`, for which the IC50 result was “inactive”.
Then `COc1ccccc1C(=O)Nc1ccc2oc(-c3ccc(F)cc3)nc2c1`, with 0.436 µM.
Then `O=C(NCc1ccco1)c1ccc(Cn2c(=O)c3sccc3n(Cc3cccc(F)c3)c2=O)cc1`, with > 40 µM (inactive); and `CSc1nc(N)c(C#N)c(-c2ccc(Cl)cc2)c1C#N`, with 4.85 µM; and `O=[N+]([O-])c1cc(-c2cnc3ccccc3n2)ccc1Cl`, with 3.68 µM.
As to `CCOc1ccccc1NC(=O)CSc1nc(N)c(C#N)cc1C#N`, the IC50 result was “inactive”.
Then `O=C(OCC(=O)c1c[nH]c2ccccc12)c1cc(Br)ccc1O`, with 5.27 µM.
Turning to `COc1ccc(NC(=O)COC(=O)c2ccc3c(c2)OCO3)c(OC)c1`, the IC50 is > 40 µM (inactive).
Then `COC(=O)c1ccccc1NC(=O)C1=CC(c2cccs2)=NS(=O)(=O)N1C`, with 1.14 µM.
As to `COc1cc(OC)cc(-c2c(Sc3ccccc3)c3cc(-c4ccc(SC)cc4)ccc3n2C)c1`, the 50% inhibitory concentration (IC50) is 5.97 µM.
`Cc1cc(C)c2nc(SCC(=O)Nc3cc(C)on3)c(C#N)cc2c1`: the IC50 was 4.17 µM.
Then `C=CCn1c(SCC(=O)Nc2cc(C)on2)nc2sc(C)c(C)c2c1=O`, with 5.14 µM; and `COc1ccccc1N1N=C(C(=O)c2ccccc2)C2C(=O)N(c3ccc(Br)cc3)C(=O)C21` (stereo not given), with 8.96 µM; and `CCCc1cc(=O)oc2cc(C)cc(OCC(=O)Nc3ccc(S(N)(=O)=O)cc3)c12`, with > 40 µM (inactive).
The same measure for `CCCN1C(=O)c2cccc3c(N4CCCCC4)ccc(c23)C1=O`: 8.14 µM; for `CNC(=O)COc1ccccc1C(=O)Nc1ccc2c(c1)oc1ccccc12`: > 40 µM (inactive).
The same measure for `O=C(Cn1cc(C(F)(F)F)cc(Cl)c1=O)NCc1ccc(Cl)cc1Cl`: “inactive”; for `Cc1nonc1NC(=O)CSc1nc2ccccc2cc1C#N`: “inactive”.
